Measurements reported in patent publication US11918662B2, “Heterocyclic compounds and imaging agents for imaging huntingtin protein” (CHDI Foundation, Inc., priority 2020, dated 2024).

Target: T1, MBP-HTT(1-89)Q46-His(6×) (“Exon1-Q46”) protein aggregates (Homo sapiens, UniProt P42858, INS38QQQQQQQQQQQQQQQQQQQQQQQQQ)
T1 construct: MBP-HTT(1-89)Q46-His(6×); His(6×) (C); made in house
Assay: Exon1-Q46 Radioligand Binding Assay
Conditions: not given

T1 sequence (P42858 with tags, fused parts or gaps with the stated changes limits assumed): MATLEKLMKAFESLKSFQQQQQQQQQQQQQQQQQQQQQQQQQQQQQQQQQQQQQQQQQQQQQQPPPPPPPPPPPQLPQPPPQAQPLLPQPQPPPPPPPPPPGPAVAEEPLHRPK

| IC50 [nM] | SMILES |
| --- | --- |
| < 100 | COc1ccc(NC(=O)CCCn2c(=O)c3cccn3c3ccccc32)nc1 [Example 5-5] |

Same assay, conditions: displacement of 0.3 nM [3H3-methyl]-5-((5-methoxypyridin-2-yl)methoxy)-2-(pyrazin-2-yl)benzo[d]oxazole from 1 μM aggregated Exon1-Q46, 60 minutes at 37° C.; read-out: Potency Range (IC50)

| IC50 [nM] | SMILES |
| --- | --- |
| < 100 | O=C(CCn1c(=O)c2cccn2c2ccc(F)cc21)N1CCc2cccnc2C1 [Example 3-56] |
| < 100 | Cc1ccc(NC(=O)CCCn2c(=O)c3cccn3c3ncccc32)cc1 [Example 4-1] |
| < 100 | O=C(CCn1c(=O)c2ccnn2c2ccc(F)cc21)N1CCc2cnccc21 [Example 8-6] |
| < 100 | COc1ccnc(NC(=O)CCCn2c(=O)c3cccn3c3cnccc32)c1 [Example 6-5] |
| < 100 | CN(C)C(=O)CCCn1c(=O)c2cccn2c2ccc(F)cc21 [Example 1-40] |
| < 100 | Cc1ccc(NC(=O)CCn2c(=O)c3ccnn3c3ccc(F)cc32)nc1 [Example 8-10] |
| < 100 | Cn1ncc2c(=O)n(CCC(=O)Nc3ccc(F)cc3F)c3cc(F)ccc3c21 [Example 9-18, N-(2,4-Difluorophenyl)-3-(7-fluoro-1-methyl-4-oxo-pyrazolo[4,3-c]quinolin-5-yl)propanamide] |
| < 100 | C[C@@H]1C[C@H](C)CN(C(=O)CCCn2c(=O)c3cccn3c3ccc(F)cc32)C1 [Example 1-2] |
| < 100 | Cn1ncc2c(=O)n(CCC(=O)Nc3ccccc3F)c3cc(F)ccc3c21 [Example 9-11] |
| < 100 | CN1CCN(C(=O)CCCn2c(=O)c3cccn3c3ccc(F)cc32)CC1=O [Example 1-41] |
| < 100 | COc1ccccc1NC(=O)CCCn1c(=O)c2cccn2c2ccc(F)cc21 [Example 1-17] |
| < 100 | COc1ccnc(NC(=O)CCCn2c(=O)c3cccn3c3ccncc32)c1 [Example 2-4] |
| < 100 | COc1cccnc1NC(=O)CCn1c(=O)c2cccn2c2ccc(F)cc21 [Example 3-17] |
| < 100 | O=C(CCn1c(=O)c2cc(F)cn2c2ccc(F)cc21)N1Cc2ccncc2C1 [Example 3-64] |
